Earlier results in patent US10299480B2 (priority 2014, dated 2019).

What was measured:
adenovirus = settings: 10 minute exposure, same conditions
herpes virus = settings: 10 minute exposure

## N=C(NCCCCCCNC(=N)NC(=N)Nc1ccc(Cl)cc1)NC(=N)Nc1ccc(Cl)cc1.O=C(O)[C@H](O)[C@@H](O)[C@H](O)[C@H](O)CO.O=C(O)[C@H](O)[C@@H](O)[C@H](O)[C@H](O)CO [CHX, Chlorhexidine digluconate]
adenovirus
  Effect on non-enveloped virus: virtually no effect
Herpes virus
  Reduction of the number of virus particles: 5-6 times
poliovirus
  Effect on non-enveloped virus: virtually no effect
